Measured values taken from ChEMBL document CHEMBL1821699, “1,5-Disubstituted indole derivatives as selective human neuronal nitric oxide synthase inhibitors” (Bioorg Med Chem Lett, 2011).

What was measured:
[1] = target: Nitric oxide synthase, inducible (Homo sapiens, UniProt P35228); test: Inhibition of human recombinant iNOS expressed in Sf9 cells assessed as conversion of [3H]-L-arginine to [3H]-L-citrulline by radiometric method
Nitric oxide synthase 3 = target: T1, Nitric oxide synthase 3 (Homo sapiens, UniProt P29474); test: Inhibition of human recombinant eNOS expressed in Sf9 cells assessed as conversion of [3H]-L-arginine to [3H]-L-citrulline by radiometric method
T1 sequence (P29474 whole entry): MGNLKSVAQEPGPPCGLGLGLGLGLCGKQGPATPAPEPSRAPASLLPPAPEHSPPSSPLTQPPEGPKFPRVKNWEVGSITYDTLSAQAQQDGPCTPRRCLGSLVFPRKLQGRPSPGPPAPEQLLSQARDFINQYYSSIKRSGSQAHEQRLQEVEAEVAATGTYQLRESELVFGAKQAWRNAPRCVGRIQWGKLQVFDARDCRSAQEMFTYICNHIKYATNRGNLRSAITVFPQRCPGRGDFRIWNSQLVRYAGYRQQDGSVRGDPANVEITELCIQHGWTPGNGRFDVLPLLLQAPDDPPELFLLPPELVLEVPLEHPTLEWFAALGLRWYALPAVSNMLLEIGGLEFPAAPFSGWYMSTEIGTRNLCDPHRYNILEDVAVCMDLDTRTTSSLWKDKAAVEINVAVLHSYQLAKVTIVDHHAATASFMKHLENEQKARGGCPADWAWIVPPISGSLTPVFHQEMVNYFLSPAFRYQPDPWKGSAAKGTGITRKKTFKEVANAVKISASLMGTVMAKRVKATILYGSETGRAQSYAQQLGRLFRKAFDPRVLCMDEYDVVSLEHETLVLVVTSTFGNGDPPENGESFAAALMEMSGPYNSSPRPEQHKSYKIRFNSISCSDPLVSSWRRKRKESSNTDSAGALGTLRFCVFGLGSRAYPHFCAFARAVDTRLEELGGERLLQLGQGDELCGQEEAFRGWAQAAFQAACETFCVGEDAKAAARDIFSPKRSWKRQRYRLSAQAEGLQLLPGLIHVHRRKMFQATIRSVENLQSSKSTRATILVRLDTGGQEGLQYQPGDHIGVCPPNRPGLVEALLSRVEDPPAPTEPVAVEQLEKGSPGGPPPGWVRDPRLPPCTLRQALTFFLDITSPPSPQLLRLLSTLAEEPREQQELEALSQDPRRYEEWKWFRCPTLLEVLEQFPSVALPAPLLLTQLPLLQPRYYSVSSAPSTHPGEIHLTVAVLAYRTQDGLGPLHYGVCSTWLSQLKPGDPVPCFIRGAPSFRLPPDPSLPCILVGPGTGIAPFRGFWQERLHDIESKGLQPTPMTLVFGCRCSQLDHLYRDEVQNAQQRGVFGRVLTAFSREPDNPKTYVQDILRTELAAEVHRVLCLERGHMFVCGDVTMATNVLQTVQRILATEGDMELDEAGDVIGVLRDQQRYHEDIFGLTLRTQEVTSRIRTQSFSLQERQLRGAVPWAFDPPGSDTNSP

Sequence of Nitric oxide synthase, inducible (P35228 whole entry): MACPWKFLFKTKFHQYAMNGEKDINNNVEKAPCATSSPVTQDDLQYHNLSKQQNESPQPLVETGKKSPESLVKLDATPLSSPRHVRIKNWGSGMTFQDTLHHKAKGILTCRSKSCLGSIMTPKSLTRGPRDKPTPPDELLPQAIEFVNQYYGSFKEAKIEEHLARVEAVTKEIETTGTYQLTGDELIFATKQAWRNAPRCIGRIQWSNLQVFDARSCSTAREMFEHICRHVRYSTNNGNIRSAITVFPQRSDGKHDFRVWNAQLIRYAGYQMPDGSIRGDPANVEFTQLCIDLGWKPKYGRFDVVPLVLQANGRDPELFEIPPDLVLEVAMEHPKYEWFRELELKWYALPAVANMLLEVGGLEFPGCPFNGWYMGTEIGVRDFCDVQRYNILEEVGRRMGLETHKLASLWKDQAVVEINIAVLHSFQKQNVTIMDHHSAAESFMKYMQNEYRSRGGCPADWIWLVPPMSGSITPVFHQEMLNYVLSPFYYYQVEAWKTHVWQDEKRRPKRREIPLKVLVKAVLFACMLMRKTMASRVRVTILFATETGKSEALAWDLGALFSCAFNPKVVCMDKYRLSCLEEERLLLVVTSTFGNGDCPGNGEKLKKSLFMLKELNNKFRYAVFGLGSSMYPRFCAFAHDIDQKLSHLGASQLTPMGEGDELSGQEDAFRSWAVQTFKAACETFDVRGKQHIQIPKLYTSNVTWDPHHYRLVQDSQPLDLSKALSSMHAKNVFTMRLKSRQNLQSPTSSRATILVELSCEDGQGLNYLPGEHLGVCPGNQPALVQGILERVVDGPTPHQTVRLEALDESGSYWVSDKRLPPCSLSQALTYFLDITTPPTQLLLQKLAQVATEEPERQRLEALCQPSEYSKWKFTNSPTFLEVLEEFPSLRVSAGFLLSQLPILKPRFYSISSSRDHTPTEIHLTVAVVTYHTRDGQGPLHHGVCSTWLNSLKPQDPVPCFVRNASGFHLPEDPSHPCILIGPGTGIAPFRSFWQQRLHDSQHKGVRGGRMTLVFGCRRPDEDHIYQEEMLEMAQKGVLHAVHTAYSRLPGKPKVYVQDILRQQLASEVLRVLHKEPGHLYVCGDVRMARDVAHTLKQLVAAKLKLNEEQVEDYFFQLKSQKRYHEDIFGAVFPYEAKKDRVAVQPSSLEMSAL

| IC50 [1] [µM] | SMILES | IC50 (Nitric oxide synthase 3) [nM] |
| --- | --- | --- |
| 18 | N=C(Nc1ccc2c(ccn2CCCNC23CC4CC(CC(C4)C2)C3)c1)c1cccs1 |  |
| 4.61 | N=C(Nc1ccc2c(ccn2CCN2CCCCC2)c1)c1cccs1 |  |
| 34 | N=C(Nc1ccc2c(ccn2CCCNC2CC2)c1)c1cccs1 |  |
| 41.6 | N=C(Nc1ccc2c(ccn2CCCN2CCOCC2)c1)c1cccs1 |  |
| 9.8 | CN1CCCCC1CCn1ccc2cc(NC(=N)c3cccs3)ccc21 (stereo not drawn) |  |
| 14 | CN1CCCC1CCn1ccc2cc(NC(=N)c3cccs3)ccc21 (racemic) |  |

The remaining lines, values behind:

| SMILES | IC50 [1] [µM] | IC50 (Nitric oxide synthase 3) [nM] |
| --- | --- | --- |
| CN(C)CCn1ccc2cc(NC(=N)c3cccs3)ccc21 | 15.7 |  |
| CN1CCC[C@H]1CCn1ccc2cc(NC(=N)c3cccs3)ccc21 | 17 | 1920 |
| CN1CCC[C@@H]1CCn1ccc2cc(NC(=N)c3cccs3)ccc21 | 22 | 3370 |
| CN1CCCC(n2ccc3cc(NC(=N)c4ccco4)ccc32)CC1 (single isomer, unassigned; (-)) | 20 |  |
| CN1CCCC(n2ccc3cc(NC(=N)c4ccco4)ccc32)CC1 (stereo in doubt; (+)-15) | 73 |  |
